Assay results reported in patent EP0724884B1, “SIDE EFFECT INHIBITOR FOR CANCER THERAPY” (Nakamura, Toshikazu, priority 1991, dated 1993).

Test system: primary-culture hepatocytes
Experiment: Leakage of GOT from primary-culture hepatocytes exposed to liver poison (Test Examples 1-4)
Assay type: cell-based, rat
Details: Liver poison alone, no addition of HGF (Carbon tetrachloride 5 mM; Mitomycin C 8 µM); culture for 24 hours; control 6.0 ± 0.4
Procedure: The primary culture was carried out as follows: Isolated hepatocytes were dispersed in William's medium (5% bovine serum, 10^-9 M insulin and 10^-9 M dexamethasone) and the cells were seeded in a 12-well plastic dish (Corning Co.) having the bottom coated with Type-I collagen. The culture medium was exchanged with the medium containing aprotinin at 0.5 µg/ml and without serum and hormones 2 hours later.
The protective effect of HGF on the hepatocytes was tested by the effect on the leakage to enzymes from the cytoplasm of the hepatocytes in the primary culture.
In order to mimick this phenomenon, hepatocyte primary-culture added with the liver poison was used. Thus the leakage of cytoplasmic enzymes such as GOT was measured in this culture system, and the protective activity on the hepatocytes by HGF was estimated along with measurement of the degree of inhibition of leakage of GOT or others. […]
The primary-culture hepatocytes described in Reference Example 3 were seeded at the surface density of 1.2 x 10^5 cells/cm^2 and on the next day, the medium was changed to one without serum, followed by the addition of HGF at 10 ng/ml and/or carbon tetrachloride at 5 mM. […] The GOT activity in the supernatant was measured by the conventional method. […]

With `ClC(Cl)(Cl)Cl` [Carbon tetrachloride] the GOT activity was 12.7 ± 1.2 mU/ml.
